Counter-ions that a name gives are not always drawn.
How the values were obtained:
Conditions in all cases: incubation time: 27 h, anaerobic, 37 °C
Escherichia coli IAI1 [1] = test: fold change of Cadaverine concentration vs plate DMSO controls (fold change (ratio)); higher = more amine produced
Escherichia coli IAI1 [2] = test: growth (OD595) fold change vs plate DMSO controls (fold change (ratio)); higher = more growth
Escherichia coli IAI1 [3] = test: fold change of Putrescine concentration vs plate DMSO controls (fold change (ratio)); higher = more amine produced
[4] = test system: Clostridium sporogenes DSM 1664; test: fold change of Tryptamine concentration vs plate DMSO controls (fold change (ratio)); higher = more amine produced
[5] = test system: Clostridium sporogenes DSM 1664; test: growth (OD595) fold change vs plate DMSO controls (fold change (ratio)); higher = more growth
[6] = test system: Ruminococcus gnavus DSM 108212; test: fold change of Tryptamine concentration vs plate DMSO controls (fold change (ratio)); higher = more amine produced
[7] = test system: Ruminococcus gnavus DSM 108212; test: fold change of 2-Phenylethylamine concentration vs plate DMSO controls (fold change (ratio)); higher = more amine produced
[8] = test system: Ruminococcus gnavus DSM 108212; test: growth (OD595) fold change vs plate DMSO controls (fold change (ratio)); higher = more growth

C=CC1=C(C(=O)O)N2C(=O)[C@@H](NC(=O)/C(=N\O)c3csc(N)n3)[C@H]2SC1 [Cefdinir]
Conditions	fold change of Cadaverine concentration, Escherichia coli IAI1 [1]	fold change of Putrescine concentration, Escherichia coli IAI1 [3]	growth, Escherichia coli IAI1 [2]
0.6125 µM	1.1	0.759	0.899
1.25 µM	1.18	0.836	0.905
2.5 µM	1.98	1.47	0.0538
5 µM	0.812	0.282	-0.042
10 µM	0.533	0.152	-0.0507
20 µM	1.17	0.342	-0.0475

CC(=O)NC[C@H]1CN(c2ccc(N3CCOCC3)c(F)c2)C(=O)O1 [Linezolid]
Conditions	fold change of Tryptamine concentration, [4]	growth, [5]
0.6125 µM	0.966	1.14
1.25 µM	0.923	1.05
2.5 µM	0.894	1.06
5 µM	0.77	0.814
10 µM	0.51	0.563
20 µM	0.0345	-0.0339

COc1cccc(OC)c1C(=O)N[C@@H]1C(=O)N2[C@@H]1SC(C)(C)[C@@H]2C(=O)O [Methicillin sodium]
Conditions	fold change of Tryptamine concentration, [4]	growth, [5]
0.6125 µM	1.02	0.843
1.25 µM	1	0.888
2.5 µM	1.01	0.839
5 µM	0.915	0.95
10 µM	0.779	0.469
20 µM	0.417	0.469

Cc1ncc([N+](=O)[O-])n1CCO [Metronidazole]
Conditions	fold change of Tryptamine concentration, [4]	growth, [5]
0.6125 µM	0.744	1.05
1.25 µM	0.758	1.12
2.5 µM	0.55	1.08
5 µM	0.0225	-0.0178
10 µM	0.0206	-0.0224
20 µM	0.0183	-0.023

CC[C@@]1([C@@H]2O[C@@H]([C@H]3O[C@@](O)(CO)[C@H](C)C[C@@H]3C)C[C@@H]2C)CC[C@H]([C@]2(C)CC[C@]3(C[C@H](O)[C@@H](C)[C@@H]([C@@H](C)[C@@H](OC)[C@H](C)C(=O)O)O3)O2)O1 [Monensin sodium salt]
Conditions	fold change of Tryptamine concentration, [4]	growth, [5]
0.6125 µM	0.986	0.907
1.25 µM	0.919	0.829
2.5 µM	0.785	0.712
5 µM	0.555	0.829
10 µM	0.39	0.664
20 µM	0.267	0.516

CCn1cc(C(=O)O)c(=O)c2cc3c(cc21)OCO3 [Oxolinic acid]
Conditions	fold change of Tryptamine concentration, [4]	growth, [5]
0.6125 µM	0.975	1.04
1.25 µM	1.03	0.931
2.5 µM	1.13	1.05
5 µM	0.788	0.775
10 µM	0.446	0.806
20 µM	0.0475	-0.028

CN(C)[C@@H]1C(=O)C(C(N)=O)=C(O)[C@@]2(O)C(=O)C3=C(O)c4c(O)cccc4[C@@](C)(O)[C@H]3[C@H](O)[C@@H]12 [Oxytetracycline dihydrate]
Conditions	fold change of 2-Phenylethylamine concentration, [7]	fold change of Tryptamine concentration, [6]	growth, [8]
0.6125 µM	0.956	1.13	0.833
1.25 µM	1.13	1.31	0.83
2.5 µM	1.34	1.69	0.68
5 µM	2.06	2.71	0.594
10 µM	2.02	2.8	0.414
20 µM	2.08	2.82	0.356

CC(C)(c1cc(Br)c(O)c(Br)c1)c1cc(Br)c(O)c(Br)c1 [TBBPA]
Conditions	fold change of Tryptamine concentration, [4]	growth, [5]
0.6125 µM	1.18	1.09
1.25 µM	1.18	1.16
2.5 µM	1.18	1.25
5 µM	1.27	1.25
10 µM	0.379	0.452
20 µM	0.0168	-0.0298

CS(=O)(=O)c1ccc([C@@H](O)[C@@H](CO)NC(=O)C(Cl)Cl)cc1 [Thiamphenicol]
Conditions	fold change of 2-Phenylethylamine concentration, [7]	fold change of Tryptamine concentration, [6]	growth, [8]
0.6125 µM	1.16	1.04	0.84
1.25 µM	1.23	0.877	0.789
2.5 µM	0.61	0.535	0.797
5 µM	0.471	0.443	0.686
10 µM	0.3	0.342	0.57
20 µM	0.329	0.267	0.38

CO[C@H]1C[C@H](O[C@H]2[C@H](C)[C@@H](O[C@@H]3O[C@H](C)C[C@H](N(C)C)[C@H]3OC(C)=O)[C@@H](C)C[C@@]3(CO3)C(=O)[C@H](C)[C@@H](OC(C)=O)[C@@H](C)[C@@H](C)OC(=O)[C@@H]2C)O[C@@H](C)[C@@H]1OC(C)=O [Troleandomycin]
Conditions	fold change of Tryptamine concentration, [4]	growth, [5]
0.6125 µM	1.07	1.05
1.25 µM	1.17	1.01
2.5 µM	1.21	0.886
5 µM	1.21	0.87
10 µM	0.983	0.89
20 µM	0.344	0.236

Reference: the supplement of paper PMC12494721
